How the values were obtained:
[1] = test system: cancer cell lines with EZH2 gain-of-function mutations (MCS Cluster A); test: Cell proliferation, cell lines sensitive by EZH2 genotype and MCS (cluster A); type: cell-based; settings: FIG. 5; cells predicted to be sensitive by EZH2 genotyping and by MCS
Description: (§1) B cell lymphoma cells were cultured using standard cell culture conditions. For example, lymphoma cells were cultured in RPMI-1640 (Invitrogen, cat #11875, Grand Island, N.Y.) supplemented with 15% FBS (Invitrogen, cat #10099-141, Grand Island, N.Y.) in humidified incubator at 37° C., 5% CO2. To assess the effect of EZH2 inhibitor on cell proliferation, exponentially growing cells were seeded at a density of 1×10^5 cells/ml in 12-well plate (Corning, cat #CLS3513 Tewksbury, Mass.). Compounds were added after cell seeding at the indicated final concentration, and viable cell number was determined every 3-4 days continuously during the course of experiment using Vi-CELL (Beckman Coulter, Brea, Calif.). On days of cell counting, fresh growth media and compound were replenished and cells split back to a density of 1×10^5 cells/ml. Total cell number and population doubling was then calculated.

[2] = test system: cells carrying EZH2 gain of function mutation, not in cluster A (low levels of H3K27me3); test: Cell proliferation, EZH2 gain of function cells not in cluster A; type: cell-based; settings: FIG. 6, cells predicted sensitive by genotyping, insensitive by MCS
Description: as §1

wild type EZH2 = wild type EZH2 (Homo sapiens, UniProt Q15910); settings: SAM competitive; cited from earlier work
Chain of wild type EZH2 (Q15910 whole entry): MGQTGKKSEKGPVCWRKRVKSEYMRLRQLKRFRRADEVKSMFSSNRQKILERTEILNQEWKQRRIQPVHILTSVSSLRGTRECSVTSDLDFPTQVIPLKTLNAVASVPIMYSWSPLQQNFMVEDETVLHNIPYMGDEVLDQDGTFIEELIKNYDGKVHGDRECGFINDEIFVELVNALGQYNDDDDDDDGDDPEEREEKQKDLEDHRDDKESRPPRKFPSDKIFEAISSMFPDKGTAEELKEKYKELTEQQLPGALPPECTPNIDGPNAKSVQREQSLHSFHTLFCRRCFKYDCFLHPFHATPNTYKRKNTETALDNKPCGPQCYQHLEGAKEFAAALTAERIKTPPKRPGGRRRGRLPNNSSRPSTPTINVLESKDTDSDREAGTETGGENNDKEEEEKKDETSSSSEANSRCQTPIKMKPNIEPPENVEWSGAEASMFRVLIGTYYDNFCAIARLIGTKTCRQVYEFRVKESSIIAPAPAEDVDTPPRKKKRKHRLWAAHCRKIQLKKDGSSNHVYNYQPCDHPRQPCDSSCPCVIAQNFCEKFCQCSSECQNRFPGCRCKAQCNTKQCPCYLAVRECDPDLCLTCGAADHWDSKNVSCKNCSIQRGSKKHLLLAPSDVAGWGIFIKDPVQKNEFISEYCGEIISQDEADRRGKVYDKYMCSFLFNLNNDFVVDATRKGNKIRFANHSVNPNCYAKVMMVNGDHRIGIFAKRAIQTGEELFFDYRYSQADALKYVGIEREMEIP
Chain of wild type EZH2 (O75530 whole entry partner): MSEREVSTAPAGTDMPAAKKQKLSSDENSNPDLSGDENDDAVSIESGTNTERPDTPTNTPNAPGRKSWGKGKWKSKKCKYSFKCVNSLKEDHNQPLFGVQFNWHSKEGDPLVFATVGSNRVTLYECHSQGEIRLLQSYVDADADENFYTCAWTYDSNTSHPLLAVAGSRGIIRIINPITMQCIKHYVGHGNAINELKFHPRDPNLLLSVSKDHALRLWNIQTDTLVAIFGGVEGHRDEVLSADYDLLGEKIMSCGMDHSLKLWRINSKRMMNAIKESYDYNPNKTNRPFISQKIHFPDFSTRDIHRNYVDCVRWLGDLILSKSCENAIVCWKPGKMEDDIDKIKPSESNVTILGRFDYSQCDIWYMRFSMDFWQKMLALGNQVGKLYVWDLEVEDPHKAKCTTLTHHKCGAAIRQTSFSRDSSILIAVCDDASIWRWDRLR
Chain of wild type EZH2 (Q15022 whole entry partner): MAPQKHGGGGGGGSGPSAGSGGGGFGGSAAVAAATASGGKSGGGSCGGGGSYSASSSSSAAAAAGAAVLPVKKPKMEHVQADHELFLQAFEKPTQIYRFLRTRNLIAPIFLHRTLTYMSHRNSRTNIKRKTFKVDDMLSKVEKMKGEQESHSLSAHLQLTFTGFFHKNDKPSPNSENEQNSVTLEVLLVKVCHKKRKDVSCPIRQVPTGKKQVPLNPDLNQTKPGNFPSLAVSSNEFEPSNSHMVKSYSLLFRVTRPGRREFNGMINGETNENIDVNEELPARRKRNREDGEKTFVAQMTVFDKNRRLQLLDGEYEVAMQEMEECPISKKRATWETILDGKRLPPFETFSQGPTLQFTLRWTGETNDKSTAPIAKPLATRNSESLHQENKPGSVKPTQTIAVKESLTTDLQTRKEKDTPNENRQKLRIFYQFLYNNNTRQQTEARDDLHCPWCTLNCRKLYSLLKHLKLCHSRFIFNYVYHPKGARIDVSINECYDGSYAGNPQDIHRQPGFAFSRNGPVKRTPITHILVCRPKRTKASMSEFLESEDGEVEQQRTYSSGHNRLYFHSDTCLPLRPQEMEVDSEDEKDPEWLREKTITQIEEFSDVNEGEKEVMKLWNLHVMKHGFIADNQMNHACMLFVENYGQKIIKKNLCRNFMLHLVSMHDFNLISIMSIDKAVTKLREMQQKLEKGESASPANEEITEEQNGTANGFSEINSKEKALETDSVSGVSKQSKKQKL

Y641F EZH2 = Y641F EZH2 (Homo sapiens, UniProt Q15910, Y641F); settings: SAM competitive; cited from earlier work
Chain of Y641F EZH2 (Q15910 whole entry Y641F): as the sequence (Q15910 whole entry) above, with Y641F counted along it
Chain of Y641F EZH2 (O75530 whole entry partner): as the sequence (O75530 whole entry partner) above
Chain of Y641F EZH2 (Q15022 whole entry partner): as the sequence (Q15022 whole entry partner) above

CCC(CC)n1ccc2c(C(=O)NCc3c(C)cc(C)[nH]c3=O)cc(C#N)cc21 [EI1, 6-cyano-N-((4,6-dimethyl-2-oxo-1,2-dihydropyridin-3-yl)methyl)-1-(pentan-3-yl)-1H-indole-4-carboxamide]
sensitivity of cells to EZH2 inhibitor (cell proliferation) [1]: sensitive
sensitivity of cells to EZH2 inhibitor (cell proliferation) [2]: insensitive
IC50 (wild type EZH2): 9.4 nM
IC50 (Y641F EZH2): 13.2 nM
